Test results: patent publication US20070270371A1, “Dosing and scheduling of oligomers” (priority 2006, published 2007)
{FAM} = fluorescein (FAM) label

What was measured:
[1] = test system: PC-3-Bcl-2 xenograft tumors; conditions: mouse, in vivo
Procedure: When the average tumor size was 65 mm^3, animals were randomized and the right flank of the xenograft tumor bearing mice were pre-treated with 5 Gy X-ray prior to administration of fluoresceinated G3139 oligonucleotide intravenously at a low dose of 6 mg/kg, daily for 5 days (top left panel); at a high dose of 10 mg/kg on given intermittently on days 1, 3, and 5 (top middle panel); a single dose of 30 mg/kg on the same day of X-ray pre-treatment (top right panel); and non-treated left flank bearing xenograft tumor (bottom 3 panels). Each mouse received a total dose of 30 mg/kg fluorescent G3139.
On day 8, animals were sacrificed, subcutaneous and organs were resected, and counterstained with DAPI as an internal staining control for nucleus staining. The resected tissues were processed as in Example 1 described above and fluorescence intensity was recorded using a stereomicroscope (Zeiss, 40) and spot camera (Qimaging). The signal intensity was recorded in three areas of each sample and quantified using MCID Elite (Imaging Research) and averaged to yield the reported intensities.

[2] = human, in vivo, iv; cited from earlier work
[3] = in vivo, sc; cited from earlier work
[4] = test system: A549 NSCLC xenograft tumors; experiment: Tumor growth of NSCLC xenografts under G3139 dosing schedules (Example 4); format: in vivo, mice
Procedure: In vivo tumor model: NSCLC xenograft tumors were established in the flank of male athymic nude mice by injecting subcutaneously 5 to 9×10^6 A549 tumor cells. […] Twenty mg/kg injections every other days for 4 weeks (total 14 days) were also carried. At 30 mg/kg and 40 mg/kg, mice were injected every two- or three-day intervals respectively. (FIG. 6). The tumor growth were measured 15 - 55 days post-implantation and the tumor volumes were calculated based on the formula: [(width)^2×length]/2. […] Tumors in mice injected with higher doses but interminttently with 2-3 days intervals also grew slower than mice treated with daily doses at lower doses.

| persistence of the oligonucleotide in tumor after administration of radiation and G3139 ([1]; iv, 30 mg/kg) | Substance | staining of tumor cells [1] | plasma half life [2] | time until plasma concentration becomes undetectable [2] | mean plasma half-life for elimination [3] | steady state plasma levels observed after the beginning of infusion [3] | tumor growth ([4]; 20 mg/kg IP every other day vs 10 mg/kg daily (total 280 mg/kg), 15-55 days post-implantation) | tumor growth ([4]; higher doses intermittently at 2-3 day intervals vs daily lower doses) |
| --- | --- | --- | --- | --- | --- | --- | --- | --- |
|  | FAM-G3139: fluorescent G3139, F - TCTCCCAGCGTGCGCCAT-3′, phosphorothioate oligonucleotide targeting bcl-2 (all phosphorothioate, 5' {FAM}, sugars by position and methylation of C not given here) | no visible staining |  |  |  |  |  |  |
| 7 days | oblimersen [G3139] |  | about 60 minutes | ≤ 4 h | 7.46 h | 48 h | grew slower | grew slower |
